Assay results reported in patent US20040209956A1 (priority 2003, published 2004).
Blank lines part the entries; values can stand above or below the compound they belong to.

Experiments:
Type in all cases: physicochemical
[1] = Solubility and solid form in DMF/water/acetonitrile ternary solvent system; conditions: one molar equivalent excess maleic acid
Method: The final set of solubility studies were conducted in ternary solvent systems of dimethyl formamide (DMF)/water/acetonitrile (ACN). This system was studied because most of the early success in crystallizing S-[2-[(1-Iminoethyl)amino]ethyl]-2-methyl-L-cysteine maleate salt was found in this solvent mixture. […] Experiments were only conducted for the last four of these compositions at 25° C., but the data was collected for the compositions at 5° C. Supernatant was analyzed after four and nineteen days. Equilibrated solids were also isolated and characterized after nineteen days from most experiments (see Table 5). […] Table 5, lists concentration data in wt % S-[2-[(1-Iminoethyl)amino]ethyl]-2-methyl-L-cysteine from all the experiments at 5 and 25° C. after four and nineteen days of equilibration. […] There is also some temperature dependence for solubility across all the experiments. When the data is analyzed at a fixed ACN content, it seems that the solubility initially decreases before increasing as the DMF content of the system is increased at the expense of water. This trend seems to hold for both 70 and 90% ACN. […] In summary, though this solvent system is complex, it does offer regions of solvent composition conducive to crystallization process design especially for form II.

[2] = physchem
From the text: The parent S-[2-[(1-Iminoethyl)amino]ethyl]-2-methyl-L-cysteine molecule has 3 ionizable groups and can exist in 4 ionization states.
At low pH, the molecule exists as a +2 charged free acid, with the carboxylic acid, amine and amidine moieties protonated. This is the ionization state for the dihydrochloride salt.
As the pH is increased, the carboxylic acid group is the first group to deprotonate, and this produces a net charge on the molecule of +1. If the pH increase is generated by addition of sodium hydroxide to S-[2-[(1-Iminoethyl)amino]ethyl]-2-methyl-L-cysteine, the […] is formed. Other bases would make their corresponding salt forms. If the increase in pH is due to removal of chloride ions by anion exchange processing, the product is the monohydrochloride salt with no sodium or other counterions.
A positive charge still resides on the amidine, and a negative charge still resides on the carboxyl group. In contrast, if such material is made by the addition of sodium hydroxide to the dihydrochloride, the resulting product is the monohydrochloro sodium salt, mixed with one equivalent of sodium chloride. The material prepared by the anion exchange resin approach is the free zwitterion.
Further increases in pH lead to deprotonation of the amidine ion (pKa˜12.5). The molecule in this pH range is the free base and acid salt. […]

[3] = Stability of free zwitterion at different pH by ion pairing gradient HPLC (Example 6); conditions: for Purity At The Time Of Titration: a few hours after preparation; for Purity One Week After Titration: after 1 week
Method: Amberlite IRA400 (Cl) resin was rinsed with 3M HCl, water, and then 3M NaOH. Aliquots were 100 ml per 10 g of resin. This procedure was repeated 3 times in order to clean the resin and in order to generate the OH form. A final rinse with water was carried out until the conductivity of the eluting water was 2 μS. The resin was then used to titrate 40 ml of a 50 mg/ml solution of S-[2-[(1-Iminoethyl)amino]ethyl]-2-methyl-L-cysteine di-hydrochloride. The concentration is expressed in terms of zwitterion equivalents. Aliquots were taken throughout the titration, filtered and analyzed by HPLC. Subsamples of the aliquots were saved for a second HPLC analysis 1 week after the titration was performed in order to assess the stability of the samples. Additional aliquots were taken for Cl analysis using an ion selective electrode. The pH was also monitored throughout the titration.
HPLC analyses were performed using an ion pairing gradient method.
Pump A: 20 mM KH2PO4, 10 mM Pentane sulfonic acid, adjusted to pH=3 with phosphoric acid
Gradient: 0% B at 0 min, 26% B at 15 min, 0% B at 15.1 min

[4] = Pseudo-titration in water with IRA-400(OH) anion exchange resin, samples assayed by HPLC (Example 3); conditions: for pH of slower rise representative of the pK: pseudo-titration in water, not true equilibrium
Method: 60 g of Amberlite IRA400 (OH) resin was prewashed with 4.7 percent (by weight) ammonium hydroxide (50 ml of 28 percent ammonium hydroxide, 250 ml deionized water), followed by extensive washing with deionized water. The final conductivity was 6.1 μS.
Samples containing about 0.9 g of S-[2-[(1-Iminoethyl)amino]ethyl]-2-methyl-L-cysteine di-hydrochloride in 142 ml HCl/water solution, were concentrated on a rotary evaporator at 60° C. to an oil. To the oil, diluted to 60 ml with deionized water, was added aliquots of 0.5 g of washed anion exchange resin while stirring. At five minutes after each aliquot of resin was added, the solution pH was measured and a sample removed through a syringe filter. A total of 9 g of anion exchange resin was added. The final pH was 10.8. The resin was removed by filtration and the filtrate was concentrated to an oil by rotary evaporation at 60° C.; no solids formed. The starting material, final filtrate and all intermediate samples were assayed by HPLC and ion chromatography for chloride.
The diamond (solid line) is pH and square (dashed line) is S-[2-[(1-Iminoethyl)amino]ethyl]-2-methyl-L-cysteine (percent initial, by ion chromatography). […] The diamond (solid line) is pH and triangle (broken line) is chloride (by ion chromatography).
These curves are not true titration curves since samples were withdrawn during the progress of the reaction, and since true equilibrium was not attained before the increments of resin were added. Nevertheless, the graphs of FIG. 2 and FIG. 3 illustrate the expected trends. As resin is added to the S-[2-[(1-Iminoethyl)amino]ethyl]-2-methyl-L-cysteine solution the pH rises with change in slope around pH's of 2, 9 and 11. The pH's of slower rise are representative of the pK's of the carboxylic acid, amine and amidine functional groups, respectively. Above a pH of 10, the S-[2-[(1-Iminoethyl)amino]ethyl]-2-methyl-L-cysteine concentration in solution decreases. At this point, the S-[2-[(1-Iminoethyl)amino]ethyl]-2-methyl-L-cysteine is gaining a net negative charge and is binding to the resin. […] The final chloride content is approximately 0.04 mol equivalents.

[5] = HPLC stability of anion exchange titrated samples (Example 5); conditions: product at pH of 11 within a few hours
Method: 3.3 g of a sample containing about 1 g of S-[2-[(1-Iminoethyl)amino]ethyl]-2-methyl-L-cysteine di-hydrochloride was diluted to 20 g. Aliquots of prewashed Amberlite IRA400 (OH) resin was added to the solution and samples were periodically withdrawn through a syringe filter. Intermediate resin filtrations were performed at pH of 7.1 and 8.8 by filtering off the resin in solution and then continuing to add fresh resin to the filtrate. This was done to drive the chloride removal equilibrium and minimize product adsorption. After the final pH of 11.2 was attained, the resin was filtered off. The starting materials, intermediate samples and final filtrate were analyzed.
The resulting samples were analyzed by HPLC. No difference was seen between the HPLC traces of the starting material and product at pH of 11 within a few hours.

[6] = Moisture sorption of Form I; conditions: 90% R.H. and 25° C.
From the text: FIG. 12 is a plot of a moisture sorption study of S-[2-[(1-Iminoethyl)amino]ethyl]-2-methyl-L-cysteine maleate.

- Solubility in DMF/water/acetonitrile ([1]; 5/5/90 D/W/A, 5° C., 4 Days): 1.15 Wt %
- Solubility in DMF/water/acetonitrile ([1]; 5/5/90 D/W/A, 5° C., 19 Days): 1.16 Wt %
- Solubility in DMF/water/acetonitrile ([1]; 6.3/3.4/90 D/W/A, 5° C., 4 Days): 1.35 Wt %
- Solubility in DMF/water/acetonitrile ([1]; 6.3/3.4/90 D/W/A, 5° C., 19 Days): 1.02 Wt %
- Solubility in DMF/water/acetonitrile ([1]; 6.3/3.4/90 D/W/A, 25° C., 4 Days): 2.13 Wt %
- Solubility in DMF/water/acetonitrile ([1]; 6.3/3.4/90 D/W/A, 25° C., 19 Days): 1.74 Wt %
- Solubility in DMF/water/acetonitrile ([1]; 7.5/2.5/90 D/W/A, 5° C., 4 Days): 4.19 Wt %
- Solubility in DMF/water/acetonitrile ([1]; 7.5/2.5/90 D/W/A, 5° C., 19 Days): 2.12 Wt %
- Solubility in DMF/water/acetonitrile ([1]; 7.5/2.5/90 D/W/A, 25° C., 4 Days): 2.53 Wt %
- Solubility in DMF/water/acetonitrile ([1]; 7.5/2.5/90 D/W/A, 25° C., 19 Days): 2.45 Wt %
- Solubility in DMF/water/acetonitrile ([1]; 15/15/70 D/W/A, 5° C., 4 Days): 3.31 Wt %
- Solubility in DMF/water/acetonitrile ([1]; 15/15/70 D/W/A, 5° C., 19 Days): 5.71 Wt %
- Solubility in DMF/water/acetonitrile ([1]; 20/10/70 D/W/A, 5° C., 4 Days): 2.91 Wt %
- Solubility in DMF/water/acetonitrile ([1]; 20/10/70 D/W/A, 5° C., 19 Days): 1.75 Wt %
- Solubility in DMF/water/acetonitrile ([1]; 20/10/70 D/W/A, 25° C., 4 Days): 3.46 Wt %
- Solubility in DMF/water/acetonitrile ([1]; 20/10/70 D/W/A, 25° C., 19 Days): 2.33 Wt %
- Solubility in DMF/water/acetonitrile ([1]; 22.5/7.5/70 D/W/A, 5° C., 4 Days): 3.06 Wt %
- Solubility in DMF/water/acetonitrile ([1]; 22.5/7.5/70 D/W/A, 5° C., 19 Days): 2.75 Wt %
- Solubility in DMF/water/acetonitrile ([1]; 22.5/7.5/70 D/W/A, 25° C., 4 Days): 4.90 Wt %
- Solubility in DMF/water/acetonitrile ([1]; 22.5/7.5/70 D/W/A, 25° C., 19 Days): 7.38 Wt %
Compound: CC(=N)NCCSC[C@](C)(N)C(=O)O.O=C(O)/C=C\C(=O)O [S-[2-[(1-Iminoethyl)amino]ethyl]-2-methyl-L-cysteine maleate]

- pKa [2]: ~8.4
- Purity At The Time Of Titration ([3]; Sample pH 2.13): 98.6 Peak Area %
- Purity One Week After Titration ([3]; Sample pH 2.13): 98.4 Peak Area %
- Purity At The Time Of Titration ([3]; Sample pH 3.83): 98.7 Peak Area %
- Purity One Week After Titration ([3]; Sample pH 3.83): 98.1 Peak Area %
- Purity At The Time Of Titration ([3]; Sample pH 8.48): 98.5 Peak Area %
- Purity One Week After Titration ([3]; Sample pH 8.48): 97.4 Peak Area %
- Purity At The Time Of Titration ([3]; Sample pH 9.37): 98.5 Peak Area %
- Purity One Week After Titration ([3]; Sample pH 9.37): 97.2 Peak Area %
- Purity At The Time Of Titration ([3]; Sample pH 9.78): 98.3 Peak Area %
- Purity One Week After Titration ([3]; Sample pH 9.78): 97.2 Peak Area %
- Purity At The Time Of Titration ([3]; Sample pH 10.27): 98.3 Peak Area %
- Purity One Week After Titration ([3]; Sample pH 10.27): 96.4 Peak Area %
- Purity At The Time Of Titration ([3]; Sample pH 10.83): 96.6 Peak Area %
- Purity One Week After Titration ([3]; Sample pH 10.83): 94.7 Peak Area %
- Purity At The Time Of Titration ([3]; Sample pH 11.6): 98.3 Peak Area %
- Purity One Week After Titration ([3]; Sample pH 11.6): 92.4 Peak Area %
- Purity At The Time Of Titration ([3]; Sample pH 11.75): 97.9 Peak Area %
- Purity One Week After Titration ([3]; Sample pH 11.75): 89.2 Peak Area %
- Purity At The Time Of Titration ([3]; Sample pH .94): 98.0 Peak Area %
- Purity One Week After Titration ([3]; Sample pH .94): 98.3 Peak Area %
- pH of slower rise representative of the pK ([4]; amidine group): ~11
- pH of slower rise representative of the pK ([4]; amine group): ~9
- pH of slower rise representative of the pK ([4]; carboxylic acid group): ~2
- Degradation by HPLC assay of the samples ([4]; samples titrated up to final pH 10.8, Example 3): no degradation
- Difference between HPLC traces of starting material and product [5]: No difference
Compound: CC(=N)NCCSC[C@](C)(N)C(=O)O [S-[2-[(1-Iminoethyl)amino]ethyl]-2-methyl-L-cysteine]

- Water absorbed by weight [6]: less than one percent
Compound: S-[2-[(1-Iminoethyl)amino]ethyl]-2-methyl-L-cysteine maleate crystalline salt Form I
